Measured values published in patent publication US12122833B2, “Combination therapies of HDAC inhibitors and PD-1 inhibitors” (HUYABIO International, LLC, priority 2016, dated 2024).

How the values were obtained:
HDAC 11 = target: T1, HDAC 11 (Homo sapiens, UniProt Q96DB2); details: cited from earlier work
T1 sequence (Q96DB2 1-347): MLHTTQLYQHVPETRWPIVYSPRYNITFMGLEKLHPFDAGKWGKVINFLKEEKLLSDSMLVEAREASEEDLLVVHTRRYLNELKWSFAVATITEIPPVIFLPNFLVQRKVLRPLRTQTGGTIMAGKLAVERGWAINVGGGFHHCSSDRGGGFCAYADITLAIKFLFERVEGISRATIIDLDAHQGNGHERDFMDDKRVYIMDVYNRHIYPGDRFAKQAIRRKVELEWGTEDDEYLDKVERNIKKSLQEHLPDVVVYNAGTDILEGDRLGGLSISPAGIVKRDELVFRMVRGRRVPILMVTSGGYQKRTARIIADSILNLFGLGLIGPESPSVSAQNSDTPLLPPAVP

[1] = test system: MC38 murine colon carcinoma; assay: Example 3: second-line therapy after PD-L1 inhibitor antibody failure, MC38 syngeneic model in C57BL/6 mice; format: in vivo, mouse
From the text: In this model, a proportion of the animals treated 1st line with the PD-L1 checkpoint inhibitor antibody experience complete tumor regression. However, a similar proportion of animals treated 1st line with the PD-L1 inhibitor antibody experience rapid tumor progression. The balance of the animals treated in this way experience slow tumor progression or stable disease, which is a result which approximates the situation in a number of human cancer patients receiving PD-L1 inhibitor antibody therapy, i.e., they experience a transient partial response, including stable disease, but then develop resistance and rapidly progress, failing PD-1 inhibitor antibody therapy. In this example, the efficacy of HBI-8000 as a second-line therapy, alone and in combination with PD-1 inhibitor antibody RMPI-14, was evaluated for the ability to cause tumor growth delay (TGD) in animals which tumors which are progressing following PD-L1 inhibitor antibody first line therapy in the MC38 murine colon carcinoma syngeneic model in immunocompetent C57BL/6 mice.
Female C57BL/6 mice bearing subcutaneous MC38 tumors (mean tumor volume: 114 mm^3 when treatment began) were treated with a first line of therapy of PD-L1 inhibitor antibody treatment, administered intraperitoneally (i.p.) at 5 mg/kg, twice weekly for two weeks (biwk×2). […] Dosing began on D1, which represents the day of recruitment and varied among mice (this was normalized for each group). The second-line therapies were as follows. Vehicle was administered orally (p.o.). HBI-8000 was administered p.o. at 50 mg/kg. PD-1 inhibitor antibody and anti-PDL-1 were administered intraperitoneally (i.p) at 5 mg/kg. Group 1 mice served as controls and received 0.2% carboxymethyl cellulose: 0.1% Tween 80 in deionized water (vehicle) once daily for twenty-one days (qd×21). Group 2 received HBI-8000 qd×21. Group 3 received a second course of PD-L1 inhibitor antibody biwk×2. Group 4 received HBI-8000 qd×21 and PD-L1 inhibitor antibody biwk×2. Group 5 received anti-PD-1 biwk×2. Group 6 received HBI-8000 qd×21 and anti-PD-1 biwk×2. The study endpoint was tumor volume of 1500 mm^3 or 45 days, whichever came first. Tumor measurements were taken twice weekly until D44 with individual animals exiting the study upon reaching the tumor volume endpoint.
Tumor Implantation and Measurement: Details of tumor implantation and measurement of tumor growth used in this example can be found in Example 1. In this example, each mouse was inoculated subcutaneously in the right flank with 5×10^5 cells (0.1 mL of cell suspension).
Test Articles: HUYA Bioscience International provided HBI-8000 (Lot No. 1384:0033). PD-1 inhibitor antibody RMPI-14 (Lot No. 5611-10/0615) and PDL-1 antibody 10F.9G2 (anti-PDL-1, Lot No. 5786-7-8/0815) were purchased from Bio X cell (West Lebanon, N.H.). All agents were prepared according to protocol instructions.
Dosing Solutions: HBI-8000 was prepared by diluting in 0.2% CMC: 0.1% Tween 80 to yield a 5 mg/mL dosing solution. Dosing solutions were prepared fresh weekly and stored at 4° C. PD-1 inhibitor antibody dosing solution was prepared by diluting an aliquot of the stock (8.62 mg/mL) to 0.5 mg/mL in sterile PBS. The dosing solution was prepared twice weekly and stored at 4° C. Anti-PDL-1 antibody dosing solution was prepared by diluting an aliquot of the stock (5.37 mg/mL) to 0.5 mg/mL in sterile PBS. The anti-PDL-1 antibody dosing solution was prepared twice weekly and stored at 4° C.
Treatment: For the initial PD-L1 inhibitor antibody failure part of this study, 150 C57BL/6 mice were dosed i.p. with first line PD-L1 inhibitor antibody at 5 mg/kg, biwk×2. Animals that met the criteria for reenrollment comprised the efficacy study; this included animals with two consecutive increases in tumor volume and tumor volumes below 500 mm^3. […]

HDAC 10 = target: T2, HDAC 10 (Homo sapiens, UniProt Q969S8); details: reported by Ning et al.; cited from earlier work
T2 sequence (Q969S8 1-669): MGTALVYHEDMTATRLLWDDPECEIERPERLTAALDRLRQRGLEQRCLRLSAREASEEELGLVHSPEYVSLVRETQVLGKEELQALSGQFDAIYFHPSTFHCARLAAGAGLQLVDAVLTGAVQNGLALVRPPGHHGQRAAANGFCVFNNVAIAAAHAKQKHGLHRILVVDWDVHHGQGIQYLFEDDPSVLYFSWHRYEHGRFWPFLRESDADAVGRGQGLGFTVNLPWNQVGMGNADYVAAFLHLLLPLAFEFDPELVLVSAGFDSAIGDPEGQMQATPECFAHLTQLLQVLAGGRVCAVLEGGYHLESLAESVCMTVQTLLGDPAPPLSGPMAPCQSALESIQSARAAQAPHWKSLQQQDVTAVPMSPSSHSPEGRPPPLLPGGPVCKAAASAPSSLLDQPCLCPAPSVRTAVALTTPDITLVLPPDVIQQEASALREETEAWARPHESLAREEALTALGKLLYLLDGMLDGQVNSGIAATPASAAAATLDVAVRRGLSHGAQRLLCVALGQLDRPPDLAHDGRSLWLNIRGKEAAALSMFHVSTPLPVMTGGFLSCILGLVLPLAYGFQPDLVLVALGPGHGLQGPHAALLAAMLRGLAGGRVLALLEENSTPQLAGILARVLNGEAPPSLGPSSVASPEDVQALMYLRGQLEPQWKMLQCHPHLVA

[2] = HBI-8000 50 mg/kg p.o. qd×21, antibodies 5 mg/kg i.p., vs vehicle

## Nc1cc(F)ccc1NC(=O)c1ccc(CNC(=O)/C=C/c2cccnc2)cc1 [HBI-8000, N-(2-amino-4-fluorophenyl)-4-[[[(2E)-1-oxo-3-(3-pyridinyl)-2-propen-1-yl]amino]methyl]benz amide]
HDAC 11
  activity at HDAC 11: has activity
HDAC 11; reported by Ning et al.
  activity at HDAC 11 compared with Entinostat: more active than Entinostat
[1]; HBI-8000 50 mg/kg p.o. qd×21, antibodies 5 mg/kg i.p., endpoint 1500 mm^3 or 45 days, n=10
  Median TTE: 11.4 days
[1]; [2]
  % TGD: 31.8%
  Mean T-C: 3.0 days
[1]; n=10 per group
  CR (complete response), number of animals: 1
  NR (no response), number of animals: 8
  PR (partial response), number of animals: 1
HDAC 10
  activity at HDAC 10 compared with Entinostat: more active than Entinostat
  inhibition of HDAC 10: low nanomolar concentrations
